Source: patent publication US20240317754A1 (priority 2020, published 2024)
pIC50: −log10 of the molar value. Where two headings read alike, the source gives them in different places.

Legend:
Assay in all cases: microbe, parasite or virus in culture
Format in all cases: cell-based
[1] = system: SARS-CoV replicon; details: Severe acute respiratory syndrome coronavirus, HEK-293T, 60 h
[2] = system: SARS-CoV-2 replicon; details: HEK293T cells; for pIC50 / inhibition at 10 µM: Severe acute respiratory syndrome coronavirus 2, HEK-293T, 60 h
[3] = system: SARS-CoV-2 (B.1)
[4] = Severe acute respiratory syndrome coronavirus 2, Vero C1008, 48 h

Row | Compound | pIC50 [2] | inhibition at 10 µM [2] [%] | also measured
1 | CC(C)C(=O)Nc1ncnn2c([C@]3(C#N)O[C@H](COC(=O)C(C)C)[C@@H](OC(=O)C(C)C)[C@H]3OC(=O)C(C)C)ccc12 [ATV001, (2R,3R,4R,5R)-2-cyano-2-(4-isobutyramidopyrrolo[2,1-f][1,2,4]triazin-7-PGP-yl)-5-((isobutyryloxy)methyl)tetrahydrofuran-3,4-diyl bis(2-methylpropanoate)] | < 4.30 | – | inhibition at 10 µM [1]: 66.8%; antiviral activity relative to GS-441524 ([2]; in words): significantly lower than that of GS-441524
2 | CC(=O)Nc1ncnn2c([C@]3(C#N)O[C@H](COC(C)=O)[C@@H](OC(C)=O)[C@H]3OC(C)=O)ccc12 [ATV002, (2R,3R,4R,5R)-2-(4-acetamidopyrrolo[2,1-f][1,2,4]triazin-7-yl)-5-(acetoxymethyl)-2-cyanotetrahydrofuran-3,4-diyl diacetate] | < 4.30 | – | inhibition at 10 µM [1]: 61%; antiviral activity relative to GS-441524 ([2]; in words): significantly lower than that of GS-441524
3 | CC(=O)OC[C@H]1O[C@@](C#N)(c2ccc3c(N)ncnn23)[C@H](OC(C)=O)[C@@H]1OC(C)=O [ATV003, (2R,3R,4R,5R)-5-(acetoxymethyl)-2-(4-aminopyrrolo[2,1-f][1,2,4]triazin-7-yl)-2-cyanotetrahydrofuran-3,4-diyl diacetate] | 6.08 | 97.6 | pIC50 [1]: 6.04; inhibition at 10 µM [1]: 98.8%
4 | CC(C)C(=O)OC[C@H]1O[C@@](C#N)(c2ccc3c(N)ncnn23)[C@H](OC(=O)C(C)C)[C@@H]1OC(=O)C(C)C [ATV004, (2R,3R,4R,5R)-2-(4-aminopyrrolo[2,1-f][1,2,4]triazin-7-yl)-2-cyano-5-((isobutyryloxy)methyl)tetrahydrofuran-3,4-diyl bis(2-methylpropanoate)] | 6.17 | 97.5 | inhibition at 5 µM [1]: 91.8%; antiviral activity relative to GS-441524 ([2]; in words): improved
5 | CCCCCOC(=O)Nc1ncnn2c([C@]3(C#N)O[C@H](CO)[C@@H](O)[C@H]3O)ccc12 [ATV005, Pentyl (7-((2R,3R,4S,5R)-2-cyano-3,4-dihydroxy-5-(hydroxymethyl)tetrahydrofuran-2-yl)pyrrolo[2,1-f][1,2,4]triazin-4-yl)carbamate] | < 4.30 | – | inhibition at 10 µM [1]: 73.3%
6 | CC(=O)OC[C@H]1O[C@@](C#N)(c2ccc3c(N)ncnn23)[C@H](O)[C@@H]1O [ATV007, ((2R,3S,4R,5R)-5-(4-aminopyrrolo[2,1-f][1,2,4]triazin-7-yl)-5-cyano-3,4-dihydroxytetrahydrofuran-2-yl)methyl acetate] | – | 91.6 | –
7 | CCC(=O)OC[C@H]1O[C@@](C#N)(c2ccc3c(N)ncnn23)[C@H](O)[C@@H]1O [ATV008, ((2R,3S,4R,5R)-5-(4-aminopyrrolo[2,1-f][1,2,4]triazin-7-yl)-5-cyano-3,4-dihydroxytetrahydrofuran-2-yl)methyl propionate] | – | 98.2 | –
8 | CCCC(=O)OC[C@H]1O[C@@](C#N)(c2ccc3c(N)ncnn23)[C@H](O)[C@@H]1O [ATV009, ((2R,3S,4R,5R)-5-(4-aminopyrrolo[2,1-f][1,2,4]triazin-7-yl)-5-cyano-3,4-dihydroxytetrahydrofuran-2-yl)methyl butyrate] | 6.66 | 98.8 | antiviral activity relative to GS-441524 ([2]; in words): improved; pIC50 [3, 4]: 5.88
9 | CCCCCCCCC(=O)OC[C@H]1O[C@@](C#N)(c2ccc3c(N)ncnn23)[C@H](O)[C@@H]1O [ATV010, ((2R,3S,4R,5R)-5-(4-aminopyrrolo[2,1-f][1,2,4]triazin-7-yl)-5-cyano-3,4-dihydroxytetrahydrofuran-2-yl)methyl nonanoate] | 6.49 | 99 | antiviral activity relative to GS-441524 ([2]; in words): improved; pIC50 [3, 4]: 6.16
10 | CCC(CC)C(=O)OC[C@H]1O[C@@](C#N)(c2ccc3c(N)ncnn23)[C@H](O)[C@@H]1O [ATV011, ((2R,3S,4R,5R)-5-(4-aminopyrrolo[2,1-f][1,2,4]triazin-7-yl)-5-cyano-3,4-dihydroxytetrahydrofuran-2-yl)methyl 2-ethylbutanoate] | 6.49 | 98.9 | antiviral activity relative to GS-441524 ([2]; in words): improved; pIC50 [3, 4]: 5.67
11 | N#C[C@@]1(c2ccc3c(N)ncnn23)O[C@H](COC(=O)C2CC2)[C@@H](O)[C@H]1O [ATV012, ((2R,3S,4R,5R)-5-(4-aminopyrrolo[2,1-f][1,2,4]triazin-7-yl)-5-cyano-3,4-dihydroxytetrahydrofuran-2-yl)methyl cyclopropanecarboxylate] | – | 97.1 | –
12 | N#C[C@@]1(c2ccc3c(N)ncnn23)O[C@H](COC(=O)c2ccccc2)[C@@H](O)[C@H]1O [ATV013, ((2R,3S,4R,5R)-5-(4-aminopyrrolo[2,1-f][1,2,4]triazin-7-yl)-5-cyano-3,4-dihydroxytetrahydrofuran-2-yl)methyl benzoate] | 6.30 | 97.7 | pIC50 [3, 4]: 5.65
13 | N#C[C@@]1(c2ccc3c(N)ncnn23)O[C@H](COC(=O)C2CCCCC2)[C@@H](O)[C@H]1O [ATV014, ((2R,3S,4R,5R)-5-(4-aminopyrrolo[2,1-f][1,2,4]triazin-7-yl)-5-cyano-3,4-dihydroxytetrahydrofuran-2-yl)methyl cyclohexanecarboxylate] | 6.59 | 98.2 | antiviral activity relative to GS-441524 ([2]; in words): lower IC50 values and higher antiviral activity; inhibition of SARS-CoV-2 replicon replication ([2]; in words): significant inhibitory effects; pIC50 [3]: 6.48
14 | N#C[C@@]1(c2ccc3c(N)ncnn23)O[C@H](COC(=O)C2CCCC2)[C@@H](O)[C@H]1O [ATV015, ((2R,3S,4R,5R)-5-(4-aminopyrrolo[2,1-f][1,2,4]triazin-7-yl)-5-cyano-3,4-dihydroxytetrahydrofuran-2-yl)methyl cyclopentanecarboxylate] | 6.15 | 97.9 | –
15 | N#C[C@@]1(c2ccc3c(N)ncnn23)O[C@H](COC(=O)CC(F)(F)F)[C@@H](O)[C@H]1O [ATV016, ((2R,3S,4R,5R)-5-(4-aminopyrrolo[2,1-f][1,2,4]triazin-7-yl)-5-cyano-3,4-dihydroxytetrahydrofuran-2-yl)methyl3,3,3-trifluoropropanoate] | 6.08 | 97.2 | –
16 | CC(C)CC(=O)OC[C@H]1O[C@@](C#N)(c2ccc3c(N)ncnn23)[C@H](O)[C@@H]1O [ATV017, ((2R,3S,4R,5R)-5-(4-aminopyrrolo[2,1-f][1,2,4]triazin-7-yl)-5-cyano-3,4-dihydroxytetrahydrofuran-2-yl)methyl 3-methylbutanoate] | 6.37 | 97.2 | pIC50 [3, 4]: 5.66
17 | CC(C)(C)C(=O)OC[C@H]1O[C@@](C#N)(c2ccc3c(N)ncnn23)[C@H](O)[C@@H]1O [ATV018, ((2R,3S,4R,5R)-5-(4-aminopyrrolo[2,1-f][1,2,4]triazin-7-yl)-5-cyano-3,4-dihydroxytetrahydrofuran-2-yl)methyl pivalate] | 6.38 | 97.5 | pIC50 [3, 4]: 6.03
18 | CC(C)[C@@H](N)C(=O)OC[C@H]1O[C@@](C#N)(c2ccc3c(N)ncnn23)[C@H](O)[C@@H]1O [ATV019, ((2R,3S,4R,5R)-5-(4-aminopyrrolo[2,1-f][1,2,4]triazin-7-yl)-5-cyano-3,4-dihydroxytetrahydrofuran-2-yl)methyl D-valinate] | 6.01 | 97.2 | pIC50 [1]: 6.10; inhibition at 10 µM [1]: 98.6%
19 | CC(C)[C@H](N)C(=O)OC[C@H]1O[C@@](C#N)(c2ccc3c(N)ncnn23)[C@H](O)[C@@H]1O [ATV020, ((2R,3S,4R,5R)-5-(4-aminopyrrolo[2,1-f][1,2,4]triazin-7-yl)-5-cyano-3,4-dihydroxytetrahydrofuran-2-yl)methyl L-valinate] | 5.63 | 99.2 | pIC50 [1]: 5.89; inhibition at 10 µM [1]: 99.2%
20 | N#C[C@@]1(c2ccc3c(N)ncnn23)O[C@H](COC(=O)[C@@H](N)Cc2ccccc2)[C@@H](O)[C@H]1O [ATV021, ((2R,3S,4R,5R)-5-(4-aminopyrrolo[2,1-f][1,2,4]triazin-7-yl)-5-cyano-3,4-dihydroxytetrahydrofuran-2-yl)methyl L-phenylalaninate] | – | 0 | –
21 | N#C[C@@]1(c2ccc3c(N)ncnn23)O[C@H](COC(=O)[C@H](N)Cc2ccccc2)[C@@H](O)[C@H]1O [ATV022, ((2R,3S,4R,5R)-5-(4-aminopyrrolo[2,1-f][1,2,4]triazin-7-yl)-5-cyano-3,4-dihydroxytetrahydrofuran-2-yl)methyl D-phenylalaninate] | – | 0 | –
22 | CCC(C)[C@H](N)C(=O)OC[C@H]1O[C@@](C#N)(c2ccc3c(N)ncnn23)[C@H](O)[C@@H]1O (stereo partly drawn) [ATV023, ((2R,3S,4R,5R)-5-(4-aminopyrrolo[2,1-f][1,2,4]triazin-7-yl)-5-cyano-3,4-dihydroxytetrahydrofuran-2-yl)methyl (2S)-2-amino-3-methylpentanoate] | 6.02 | 98.7 | –
23 | CCC(C)[C@@H](N)C(=O)OC[C@H]1O[C@@](C#N)(c2ccc3c(N)ncnn23)[C@H](O)[C@@H]1O (stereo partly drawn) [ATV024, ((2R,3S,4R,5R)-5-(4-aminopyrrolo[2,1-f][1,2,4]triazin-7-yl)-5-cyano-3,4-dihydroxytetrahydrofuran-2-yl)methyl (2R)-2-amino-3-methylpentanoate] | 6.07 | 99.1 | –
24 | CC(C)C(=O)OC[C@H]1O[C@@](C#N)(c2cc(F)c3c(N)ncnn23)[C@H](O)[C@@H]1O [ATV025, ((2R,3S,4R,5R)-5-(4-amino-5-fluoropyrrolo[2,1-f][1,2,4]triazin-7-yl)-5-cyano-3,4-dihydroxytetrahydrofuran-2-yl)methyl isobutyrate] | 6.05 | 97.8 | –
25 | CC1(C)O[C@H]2[C@@H](O1)[C@](C#N)(c1ccc3c(N)ncnn13)O[C@@H]2CO [Intermediate 5 of RDV, reference compound] | < 4.30 | – | inhibition at 10 µM [1]: 75.9%
